# Assay results: patent US20060154948A1, “Treating allergic and inflammatory conditions” (priority 2005, published 2006)
# Test system: seasonal allergic rhinitis
# Assay: Double-blinded, randomized clinical trials in seasonal allergic rhinitis patients
# Method: Efficacy endpoints in all the studies were Total Symptom Score, Total Nasal Symptom Score, Total Non-nasal Symptom Score, and Health Quality of Life (HQOL) analysis in efficacy trials. […] This parameter measures the total symptom relief by the patient after 24 hours before taking the next day dose.
smiles,measurement,setting,value
"Clc1ccc2c(c1)CCc1cccnc1C2=C1CCNCC1 [Desloratadine, desloratadine]",Total symptom scores,"5 mg once daily, adult and adolescent seasonal allergic rhinitis patients",significantly reduced
same,Reduction of nasal symptoms versus placebo,"5 mg, seasonal allergic rhinitis patients",significantly (p<0.01) more effective than placebo
same,AM NOW total symptom score,"24 hours after dose, over the entire dosage range",Statistically significant (p<0.05) reductions were maintained for the full 24 hour dosing interval
